Literature values in patent US5221745A, “Psychotropic piperidinylmethyl benzodioxans” (American Home Products Corp., priority 1992, dated 1993).

Key:
5-HT1A receptor = conditions: Fozard et al. 1987
[1] = target: T1, serotonin 5-HT1A receptor (Rattus norvegicus, UniProt P19327); conditions: standard for anxiolytic activity
T1 construct: following the procedure of Hall et al., J. Neurochem; 44, 1685 (1985); from tissue
T1 sequence (P19327 1-422): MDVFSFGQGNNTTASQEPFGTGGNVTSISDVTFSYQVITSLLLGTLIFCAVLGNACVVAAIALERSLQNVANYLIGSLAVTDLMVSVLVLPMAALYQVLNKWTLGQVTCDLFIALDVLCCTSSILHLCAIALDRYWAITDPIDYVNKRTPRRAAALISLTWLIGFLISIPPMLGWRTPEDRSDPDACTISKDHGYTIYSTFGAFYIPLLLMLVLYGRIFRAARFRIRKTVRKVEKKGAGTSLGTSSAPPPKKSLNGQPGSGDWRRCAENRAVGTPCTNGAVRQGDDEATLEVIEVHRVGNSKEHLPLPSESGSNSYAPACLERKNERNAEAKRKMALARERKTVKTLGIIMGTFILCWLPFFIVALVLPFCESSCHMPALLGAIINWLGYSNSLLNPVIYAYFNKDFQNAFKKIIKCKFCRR

Compound	ligand character for 5-HT1A receptors (in words) (5-HT1A receptor)	affinity for the 5-HT1A serotonin receptor subtype (in words) [1]
O=C1CC2(CCCC2)CC(=O)N1CCCCNCC1COc2ccccc2O1 (centres unmarked) [MDL 72832, 8-[4-(1,4-benzodioxan-2-ylmethylamino)butyl]-8-azaspiro[4.5]decane-7,9-dione]	selective and stereospecific	
O=C1CC2(CCCC2)CC(=O)N1CCCCN1CCN(c2ncccn2)CC1 [buspirone]		potent affinity
